Experimental data: patent US11760795B2, “Monoclonal antibodies to growth and differentiation factor 15 (GDF-15), and uses thereof for treating cancer cachexia and cancer” (JULIUS-MAXIMILIANS-UNIVERSITÄT WÜRZBURG, priority 2014, dated 2023)
Where “and” joins values, the source holds several entries; their conditions need not be identical. Identical values can stand only once.

Legend:
[1] = Study No. 140123: feed consumption of UACC-257 inoculated mice; type: in vivo, Balb/c^nu/nu mice; settings: average over day 17-34 intervals, with standard deviation
Experimental: Treatment of cancer-induced weight loss with anti-GDF-15 antibodies. In the underlying animal study No. 140123, 10 Balb/c^nu/nu mice per treatment group were subcutaneously inoculated with 10×10^6 UACC-257 cells per animal in a 1:1 volume ratio with matrigel (100 μl cells+100 μl matrigel). The animals were treated on the same day with the respective antibodies, as indicated below:
In addition to evaluating the mean body weight of the mice, the feed consumption of the mice was evaluated by pairwise comparisons of the study groups (Table 1).

human GDF-15 = biological target: T1, human GDF-15 (Homo sapiens, UniProt Q99988); assay: Kd determination by Surface Acoustic Wave (SAW) gold chip biosensors; type: binding; settings: murine B1-23 stabilized with 0.2% BSA, H1L5 as CHO supernatant
T1 sequence (Q99988 with tags, fused parts or gaps limits assumed): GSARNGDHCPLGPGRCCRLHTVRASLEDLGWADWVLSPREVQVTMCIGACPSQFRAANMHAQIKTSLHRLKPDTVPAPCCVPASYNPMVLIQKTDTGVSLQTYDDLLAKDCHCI
Source text: Determination of Kd values of anti-GDF-15 antibodies. The Kd values of different anti-GDF-15 antibodies were compared using Surface Acoustic Wave (SAW) gold chip biosensors technology (SAW Instruments GmbH, Schwertberger Str. 16, D-53177 Bonn, Germany):
The murine antibody (B1-23) as well as the chimeric B1-23 antibody were present in purified form. The H1L5 humanized B1-23 antibody was a serum-free CHO cell culture supernatant.

[2] = comparison value, antigen not given; read-out: equilibrium dissociation constant of therapeutic antibody; cited from earlier work

Molecule	Feed consumption per mouse and day [1]	Kd (human GDF-15)	Kd [2]
CN(C)/N=N/c1[nH]cnc1C(N)=O [dacarbazine, Dacarbazine, reference compound]	2.8 ± 0.2 g	–	–
Rituximab: therapeutically used antibody; control antibody in SAW assay	–	1120 nM	~8 nM and 8 nM
